Data on one substance can be found in patent US7417049B2 (priority 2002, dated 2008).

This assay concerns the target α7 nAChR Subtype (Rattus norvegicus, UniProt Q05941). It is filed as binding. Conditions: read-out: KD of radioligand.

α7 nAChR Subtype, sequence (Q05941 23-502 limits assumed): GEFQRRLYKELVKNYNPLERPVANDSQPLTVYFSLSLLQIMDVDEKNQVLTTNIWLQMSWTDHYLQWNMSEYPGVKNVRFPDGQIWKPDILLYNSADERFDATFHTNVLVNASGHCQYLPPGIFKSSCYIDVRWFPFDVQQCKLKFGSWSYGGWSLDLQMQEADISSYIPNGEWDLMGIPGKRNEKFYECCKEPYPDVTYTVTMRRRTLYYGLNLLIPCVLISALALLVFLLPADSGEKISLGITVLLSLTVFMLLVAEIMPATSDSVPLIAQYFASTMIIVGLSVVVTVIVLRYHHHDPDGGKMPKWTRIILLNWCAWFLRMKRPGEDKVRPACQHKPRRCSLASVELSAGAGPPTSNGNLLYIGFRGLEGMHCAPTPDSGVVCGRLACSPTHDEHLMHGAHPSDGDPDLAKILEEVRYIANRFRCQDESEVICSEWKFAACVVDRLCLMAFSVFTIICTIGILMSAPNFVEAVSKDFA

For [^125I]α-Bungarotoxin [[^125I]-α-BTX], the Kd was determined as 1.67 nM.
